Source: patent US7517857B2, “Immune-modulating peptide” (POSCO, priority 2002, dated 2009)
Where a SMILES comes first, the peptide text is derived from it. Where no end group is shown, it is not given here. [ ]: non-standard residue; d: D form.

Columns and labels:
Assay type in all cases: cell-based
FPR [1] = target: T1, FPR (Homo sapiens, UniProt P21462); experiment: ERK phosphorylation in FPR-expressing RBL-2H3 cells (immunoblot); conditions: for ERKs phosphorylation/activation: 10 μM peptides 2 min (WKYMVm time course 1 μM)
T1 construct: expressed in transfected cells; host or cells: RBL-2H3 (rat basophilic leukemia) cells, G418-selected
T1 sequence (P21462 1-350): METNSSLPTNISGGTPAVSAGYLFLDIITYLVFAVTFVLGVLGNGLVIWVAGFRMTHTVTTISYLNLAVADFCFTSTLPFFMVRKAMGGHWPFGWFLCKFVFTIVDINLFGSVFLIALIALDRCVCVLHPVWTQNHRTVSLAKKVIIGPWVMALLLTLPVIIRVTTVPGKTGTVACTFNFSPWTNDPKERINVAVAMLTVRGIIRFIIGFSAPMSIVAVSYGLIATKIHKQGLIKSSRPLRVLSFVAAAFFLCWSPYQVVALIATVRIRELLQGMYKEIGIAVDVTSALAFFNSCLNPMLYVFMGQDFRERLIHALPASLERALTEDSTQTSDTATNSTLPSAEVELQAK
Experimental: Cultured RBL-2H3 cells were aliquoted into 2×10^6 cells and stimulated with the indicated concentrations of WKYMVm and the peptides of the present invention for the indicated lengths of time. FPR- or FPRL1-expressing RBL-2H3 cells were stimulated with 1 μM WKYMVm for various periods of time (FIG. 3A). Two cells were preincubated with a vehicle or 100 ng/ml of PTX (24 hr), 50 μM of LY294002 (15 min), 5 μM of GFX (15 min), 10 μM BAPTA/AM (60 min), or 50 μM PD98059 (60 min) prior to 1 μM of WKYMVm treatment (FIG. 3B). FPR- or FPRL1-expressing RBL2H3 cells were stimulated with 10 μM of the peptides of the present invention for 2 min or 5 min, respectively (FIG. 3C).
After stimulation, the cells were washed with serum-free RPMI and lysed in a lysis buffer (20 mM Hepes, pH 7.2, 10% glycerol, 150 mM NaCl, 1% Triton X-100, 50 mM NaF, 1 mM Na3VO4, 10 μg/ml leupeptin, 10 μg/ml aprotinin, and 1 mM phenylmethylsulfonyl fluoride). The detergent-insoluble materials were pelleted by centrifugation (12,000×g, 15 min, at 4° C.), and the soluble supernatant fraction was removed and stored at −80° C. or used immediately. Protein concentrations in the lysates were determined using the Bradford protein assay reagent.
Each sample ([…] of protein) was subjected to 10% SDS-PAGE and phosphorylated ERK was determined by an immunoblot analysis with an anti-phospho-ERK antibody. Protein samples were prepared for electrophoresis by addition of a concentrated sample buffer. The portions in the samples were then separated by an 10% SDS-polyacrylamide gel using the buffer system described by Laemmli (17).
Following the electrophoresis, a western blot analysis with an anti-ERK2 antibody was performed to confirm that the same amounts of samples were used for the experiments. The proteins were blotted onto nitrocellulose membranes. The nitrocellulose membranes were then blocked by incubation with TBS (Tris-buffered saline, 0.05% Tween-20) containing 5% non-fat dry milk. Subsequently, the membranes were incubated with anti-phospho-ERK antibody, anti-phospho-Akt antibody or anti-Akt antibody washed with TBS. For a PKC translocation assay, an antibody for PKC isozyme-specific was incubated. Antigen-antibody complexes were visualized after incubating the membrane with a 1:5000 diluted goat anti-rabbit IgG or goat anti-mouse IgG antibody coupled to horseradish peroxidase and using the enhanced chemiluminescence detection system.

FPR [2] = target: T1, FPR; experiment: [Ca2+]i increase in FPR-expressing RBL-2H3 cells (fura-2); conditions: for EC50 (nM), intracellular calcium increase: fura-2 loaded
Experimental: FPR-expressing RBL-2H3 cells were stimulated with 10 μM of each peptide, and [Ca^2+]i was determined. The level of [Ca^2+]i was determined fluorometrically by Grynkiewicz's method using fura-2/AM (15). Briefly, prepared cells were incubated with 3 μM fura-2/AM at 37° C. for 50 min in a fresh serum-free RPMI 1640 medium under continuous stirring. 2×10^6 cells were aliquoted for each assay in Ca^2+-free Locke's solution (154 mM NaCl, 5.6 mM KCl, 1.2 mM MgCl2, 5 mM HEPES, pH 7.3, 10 mM glucose, and 0.2 mM EGTA). Fluorescence changes at the dual excitation wavelengths of 340 nm and 380 nm and the emission wavelength of 500 nm were measured, and the calibrated fluorescence ratio was translated into [Ca^2+]i. The peak level of the increased [Ca^2+]i was monitored.

FPRL1 = target: T2, FPRL1 (Homo sapiens, UniProt P25090); experiment: Chemotaxis of FPRL1-expressing RBL-2H3 cells (modified Boyden chamber); conditions: FPRL1-expressing RBL-2H3 cells; various concentrations
T2 construct: expressed in transfected cells; host or cells: RBL-2H3 (rat basophilic leukemia) cells, G418-selected
T2 sequence (P25090 1-351): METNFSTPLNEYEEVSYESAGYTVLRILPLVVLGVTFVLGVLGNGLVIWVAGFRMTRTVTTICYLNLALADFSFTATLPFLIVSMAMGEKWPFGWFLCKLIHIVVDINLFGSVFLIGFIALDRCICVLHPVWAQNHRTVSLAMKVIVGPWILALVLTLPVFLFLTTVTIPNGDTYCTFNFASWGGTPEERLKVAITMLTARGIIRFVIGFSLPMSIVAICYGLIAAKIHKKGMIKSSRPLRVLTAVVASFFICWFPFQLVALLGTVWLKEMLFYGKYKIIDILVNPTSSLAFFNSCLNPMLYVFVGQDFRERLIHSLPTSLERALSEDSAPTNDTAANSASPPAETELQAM
Experimental: Chemotaxis assays were performed using multiwell chambers (modified Boyden chamber assay) (Neuroprobe Inc., Gaithersburg, Md.) (18). Briefly, polycarbonate filters (8 μm pore size) were precoated with 50 μg/ml of rat type I collagen (Collaborative Biomedicals) in a HEPES-buffered RPMI 1640 medium. A dry coated filter was placed on a 96-well chamber containing different concentrations of peptides. RBL-2H3 cells expressing FPR or FPRL1 were suspended in RPMI at a concentration of 1×10^6 cells/ml of serum-free RPMI, and 25 μl of the suspension were placed onto the upper well of the 96-well chemotaxis chamber. After incubation for 4 hours at 37° C., non-migrated cells were removed by scraping them out, and cells that migrated across the filter were dehydrated, fixed, and stained with hematoxylin (Sigma, St. Louis, Mo.). The stained cells in five randomly chosen high power fields (HPF) (400×) in that well were then counted. […] The numbers of migrated cells were determined by counting them in a high power field (400×). The Data are presented as means ±SE of three independent experiments each performed in duplicate. The effect of the peptides of the present invention on cellular chemotaxis in FPR- or FPRL1-expressing RBL-2H3 cells was measured. Various concentrations of each peptide were used for the chemotaxis assay with FPR- or FPRL1-expressing RBL-2H3 cells. The numbers of migrated cells were determined by counting them in a high power field (400×). The Data are presented as means ±SE of two independent experiments each performed in duplicates.

| Compound | ERKs phosphorylation/activation (FPR [1]) | EC50 (nM), intracellular calcium increase (FPR [2]) | [Ca^2+]i increasing activity (FPR [2]) | cellular chemotaxis (FPRL1) | time of maximal ERKs activity after peptide treatment (FPR [1]; 1 μM WKYMVm) | concentration showing maximal [Ca^2+]i increase activity (FPR [2]; data not shown) |
| --- | --- | --- | --- | --- | --- | --- |
| CSCC[C@H](NC(=O)[C@H](CCCNC(=N)N)NC(=O)[C@H](CCCCN)NC(=O)[C@@H](N)Cc1c[nH]c2ccccc12)C(=O)N[C@H](C(=O)N[C@H](CCSC)C(N)=O)C(C)C [WKRMVm-NH2, Trp-Lys-Arg-Met-Val-D-Met-NH2] (H-WKRMV[dM]-NH2; N-terminus assumed) | stimulated ERKs phosphorylation | inactive | – | induced cellular chemotaxis showing concentration-dependency | – | – |
| CSCC[C@H](NC(=O)[C@H](Cc1ccc(O)cc1)NC(=O)[C@H](CCCCN)NC(=O)[C@@H](N)Cc1c[nH]c2ccccc12)C(=O)N[C@H](C(=O)N[C@H](CCSC)C(N)=O)C(C)C [WKYMVm-NH2, Trp-Lys-Tyr-Met-Val-D-Met-NH2, reference compound] | induced transient activation of ERKs | inactive | – | induced cellular chemotaxis showing concentration-dependency | 2 min | around 300 nM |

Further lines, with some results ahead:

| ERKs phosphorylation/activation (FPR [1]) | EC50 (nM), intracellular calcium increase (FPR [2]) | Compound | [Ca^2+]i increasing activity (FPR [2]) | cellular chemotaxis (FPRL1) | time of maximal ERKs activity after peptide treatment (FPR [1]; 1 μM WKYMVm) | concentration showing maximal [Ca^2+]i increase activity (FPR [2]; data not shown) |
| --- | --- | --- | --- | --- | --- | --- |
| stimulated ERKs phosphorylation | inactive | CSCC[C@H](NC(=O)CNC(=O)[C@H](CCCCN)NC(=O)[C@@H](N)Cc1c[nH]c2ccccc12)C(=O)N[C@H](C(=O)N[C@H](CCSC)C(N)=O)C(C)C [WKGMVm-NH2, Trp-Lys-Gly-Met-Val-D-Met-NH2] (H-WKGMV[dM]-NH2; N-terminus assumed) | did not effect a [Ca^2+]i increase until 20 μM treatment | induced cellular chemotaxis showing concentration-dependency | – | – |
| stimulated ERKs phosphorylation | inactive | WKYMVE-NH2 [WKYMVE-NH2, Trp-Lys-Tyr-Met-Val-Glu-NH2] | – | induced cellular chemotaxis showing concentration-dependency | – | – |
| stimulated ERKs phosphorylation | inactive | WKYMVR-NH2 [WKYMVR-NH2, Trp-Lys-Tyr-Met-Val-Arg-NH2] | – | induced cellular chemotaxis showing concentration-dependency | – | – |
